Experiments:
[1] = molecular target: T1, Peroxisome proliferator-activated receptor gamma (Homo sapiens, UniProt P37231)
T1 sequence (P37231 whole entry): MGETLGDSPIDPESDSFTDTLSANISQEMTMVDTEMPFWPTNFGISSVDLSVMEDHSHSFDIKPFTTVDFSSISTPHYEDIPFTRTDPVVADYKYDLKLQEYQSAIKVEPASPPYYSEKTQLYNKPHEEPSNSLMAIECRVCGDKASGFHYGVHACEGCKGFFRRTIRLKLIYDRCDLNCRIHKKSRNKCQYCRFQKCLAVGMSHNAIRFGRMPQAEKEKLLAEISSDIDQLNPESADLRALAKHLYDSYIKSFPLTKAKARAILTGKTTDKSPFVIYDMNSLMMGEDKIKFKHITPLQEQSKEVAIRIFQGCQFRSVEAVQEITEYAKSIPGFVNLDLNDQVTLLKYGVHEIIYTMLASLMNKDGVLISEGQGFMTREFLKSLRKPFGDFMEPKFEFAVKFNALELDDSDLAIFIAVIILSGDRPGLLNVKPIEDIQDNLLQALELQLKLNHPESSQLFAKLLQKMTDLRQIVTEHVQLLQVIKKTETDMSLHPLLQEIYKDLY
Description: In vitro transactivation using receptor transactivation assay against hPPAR gamma

[2] = molecular target: T2, Peroxisome proliferator-activated receptor alpha (Homo sapiens, UniProt Q07869); experiment: In vitro transactivation using receptor transactivation assay against hPPAR alpha; assay type: functional
T2 sequence (Q07869 whole entry): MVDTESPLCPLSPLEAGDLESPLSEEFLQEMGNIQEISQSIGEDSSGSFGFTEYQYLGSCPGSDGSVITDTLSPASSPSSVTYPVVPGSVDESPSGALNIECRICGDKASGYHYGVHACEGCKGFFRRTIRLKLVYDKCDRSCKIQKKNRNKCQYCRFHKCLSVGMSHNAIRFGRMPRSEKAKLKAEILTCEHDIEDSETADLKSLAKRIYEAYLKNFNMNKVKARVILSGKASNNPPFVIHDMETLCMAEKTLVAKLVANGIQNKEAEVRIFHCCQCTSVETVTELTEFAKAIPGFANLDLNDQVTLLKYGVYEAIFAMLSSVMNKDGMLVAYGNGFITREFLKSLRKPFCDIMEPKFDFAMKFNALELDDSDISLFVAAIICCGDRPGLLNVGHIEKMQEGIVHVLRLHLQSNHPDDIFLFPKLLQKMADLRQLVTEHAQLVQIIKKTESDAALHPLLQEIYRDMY

[3] = Clearance after oral administration in rat; assay type: ADME, organism-based; details: in vivo
[4] = species on record: Mus musculus; experiment: Maximum achieved insulin reduction relative to vehicle treated control group; assay type: functional
[5] = species on record: Mus musculus; experiment: Effective dose which produces the desired nonfasting triglyceride levels after 7 days in 50% of the treated male db/db mice.; assay type: functional; details: 168 h
[6] = Maximum plasma concentration after oral administration at a dose 2.2 mg/kg in rat; assay type: ADME, organism-based; parameters: dose 2.2 mg/kg, route oral
[7] = Oral bioavailability in rat; assay type: ADME, organism-based; details: in vivo
[8] = Area under plasma concentration time curve after oral administration at a dose 2.2 mg/kg in rat; assay type: ADME, organism-based; parameters: dose 2.2 mg/kg, route oral
[9] = species on record: Mus musculus; experiment: Effective dose which produces the desired nonfasting insuline levels after 7 days in 50% of the treated male db/db mice.; assay type: functional; details: 168 h
[10] = Oral half life was reported in rat; assay type: ADME, organism-based; details: in vivo
[11] = Volume of distribution during steady state in rat; assay type: ADME, organism-based; details: in vivo, read-out: Vss
[12] = species on record: Mus musculus; experiment: Effective dose which produces the desired nonfasting blood glucose levels after 7 days in 50% of the treated mice.; assay type: functional; details: 168 h
[13] = species on record: Mus musculus; experiment: Maximum achieved triglycerides reduction relative to vehicle treated control group; assay type: functional
[14] = Area under blood glucose time curve after OGTT on the 9th day of treatment; assay type: ADME, tissue-based

| SMILES | EC50 [1] [µM] | EC50 [2] [µM] | also measured |
| --- | --- | --- | --- |
| CCOC(Cc1ccc(OCCN(C)C2c3ccccc3CCc3ccccc32)cc1)C(=O)O (configuration not stated) | 1.7 |  |  |
| CCOC(Cc1ccc(OCCC2c3ccccc3-c3ccccc32)cc1)C(=O)O (configuration not stated) | 0.49 | 11.7 |  |
| CCOC(Cc1ccc(OCCC=C2c3ccccc3CCc3ccccc32)cc1)C(=O)O (configuration not stated) | 16.7 |  |  |
| CCOC(Cc1ccc(OCCC2c3ccccc3Oc3ccccc32)cc1)C(=O)O (configuration not stated) | 0.46 | 9.6 |  |
| CCOC(Cc1ccc(OCCNC2=Nc3ccccc3Sc3ccccc32)cc1)C(=O)O (configuration not stated) | 9.8 | 7.5 |  |
| CCOC(Cc1ccc(OCCN2c3ccccc3CCc3ccccc32)cc1)C(=O)O (configuration not stated) | 0.75 |  |  |
| CCOC(Cc1ccc(OCC=C2c3ccccc3CCc3ccccc32)cc1)C(=O)O (configuration not stated) | 12.6 |  |  |
| CCO[C@@H](Cc1ccc(OCCn2c3ccccc3c3ccncc32)cc1)C(=O)O | 0.011 | 0.14 | CL/F [3]: 0.762 L/h/kg; Max reduction [4]: 77%; ED50 [5]: 2.68 mg/kg; Cmax [6]: 0.527 µg/mL; bioavailability [7]: 61%; AUC [8]: 1.33 µg·h/mL; ED50 [9]: 7.74 mg/kg; half-life [10]: 2.7 h; Vd [11]: 0.88 L/kg; ED50 [12]: 0.33 mg/kg; Max reduction [13]: 50%; AUC ED50 [14]: 3.32 mg/kg |
| CCO[C@@H](Cc1ccc(OCCN2c3ccccc3Oc3ccccc32)cc1)C(=O)O [RAGAGLITAZAR] | 0.57 | 3.21 |  |
| CCO[C@@H](Cc1ccc(OCCn2c3ccc(Br)cc3c3cc(Br)ccc32)cc1)C(=O)O | 0.044 | 0.22 |  |
| CCOC(Cc1ccc(OCCC2Sc3ccccc3Oc3ccccc32)cc1)C(=O)O (configuration not stated) | 3.7 | 9 |  |
| CCOC(Cc1ccc(OCC/C=C2/c3ccccc3COc3ccccc32)cc1)C(=O)O (configuration not stated) | 12.4 | 12.4 |  |

From ChEMBL document CHEMBL1135600, “Novel tricyclic-alpha-alkyloxyphenylpropionic acids: dual PPARalpha/gamma agonists with hypolipidemic and antidiabetic activity” (J Med Chem, 2002)
